The record followed here is ChEMBL document CHEMBL1955826, “Acetylenic acid analogues from the edible mushroom Chanterelle (Cantharellus cibarius) and their effects on the gene expression of peroxisome proliferator-activated receptor-gamma target genes” (Bioorg Med Chem Lett, 2012).

The source made the active and inactive calls. No cut-off for these calls is given here.

What is called EC50 is the concentration that produces a half-maximal response.

For test [1], the target named is T1, Peroxisome proliferator-activated receptor alpha (Homo sapiens) (UniProt Q07869).
T1 sequence (whole entry): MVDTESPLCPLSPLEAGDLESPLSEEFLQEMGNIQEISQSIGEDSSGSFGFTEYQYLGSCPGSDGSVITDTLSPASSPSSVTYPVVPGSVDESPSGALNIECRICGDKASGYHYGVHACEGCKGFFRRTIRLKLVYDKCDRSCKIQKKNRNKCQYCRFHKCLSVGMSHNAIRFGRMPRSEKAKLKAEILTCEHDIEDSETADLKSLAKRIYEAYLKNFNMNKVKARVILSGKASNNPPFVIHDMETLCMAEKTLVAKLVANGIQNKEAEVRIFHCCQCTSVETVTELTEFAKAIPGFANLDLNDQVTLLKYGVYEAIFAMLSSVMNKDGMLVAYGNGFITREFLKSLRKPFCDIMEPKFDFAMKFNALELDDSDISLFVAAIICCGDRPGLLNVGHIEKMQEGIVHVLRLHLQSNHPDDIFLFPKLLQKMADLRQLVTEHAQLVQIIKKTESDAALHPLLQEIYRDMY
The experiment in a line: Agonist activity at human PPARalpha expressed in CHO cells co-transfected with pGL3-PPRE3-TK-luc assessed as transactivation at 20 ug/ml after 24 hrs by firefly luciferase reporter gene assay. It is filed as functional, cell-based. (In general: In a reporter assay the amount or activity of a reporter protein is the signal.)

Test [2] concerns the target T2, Peroxisome proliferator-activated receptor delta (Homo sapiens) (UniProt Q03181).
T2 sequence (whole entry): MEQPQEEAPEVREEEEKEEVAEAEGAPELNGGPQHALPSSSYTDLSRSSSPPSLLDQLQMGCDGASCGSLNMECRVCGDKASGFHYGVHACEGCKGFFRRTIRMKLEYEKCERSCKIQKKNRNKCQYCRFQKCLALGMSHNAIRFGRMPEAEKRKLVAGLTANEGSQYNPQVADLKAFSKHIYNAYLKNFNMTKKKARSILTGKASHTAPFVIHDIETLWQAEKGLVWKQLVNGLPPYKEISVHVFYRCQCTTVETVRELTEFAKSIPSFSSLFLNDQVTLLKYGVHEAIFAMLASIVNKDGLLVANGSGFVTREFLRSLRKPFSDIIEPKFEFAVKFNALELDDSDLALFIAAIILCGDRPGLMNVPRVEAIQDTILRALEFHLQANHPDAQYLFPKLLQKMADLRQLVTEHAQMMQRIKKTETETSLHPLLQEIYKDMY
The test is described as follows: Agonist activity at human PPARdelta expressed in CHO cells co-transfected with pGL3-PPRE3-TK-luc assessed as transactivation at 20 ug/ml after 24 hrs by firefly luciferase reporter gene assay. It is filed as functional, cell-based.

Test [3] has as its target T3, Peroxisome proliferator-activated receptor gamma (Homo sapiens, UniProt P37231).
T3 sequence (P37231 whole entry): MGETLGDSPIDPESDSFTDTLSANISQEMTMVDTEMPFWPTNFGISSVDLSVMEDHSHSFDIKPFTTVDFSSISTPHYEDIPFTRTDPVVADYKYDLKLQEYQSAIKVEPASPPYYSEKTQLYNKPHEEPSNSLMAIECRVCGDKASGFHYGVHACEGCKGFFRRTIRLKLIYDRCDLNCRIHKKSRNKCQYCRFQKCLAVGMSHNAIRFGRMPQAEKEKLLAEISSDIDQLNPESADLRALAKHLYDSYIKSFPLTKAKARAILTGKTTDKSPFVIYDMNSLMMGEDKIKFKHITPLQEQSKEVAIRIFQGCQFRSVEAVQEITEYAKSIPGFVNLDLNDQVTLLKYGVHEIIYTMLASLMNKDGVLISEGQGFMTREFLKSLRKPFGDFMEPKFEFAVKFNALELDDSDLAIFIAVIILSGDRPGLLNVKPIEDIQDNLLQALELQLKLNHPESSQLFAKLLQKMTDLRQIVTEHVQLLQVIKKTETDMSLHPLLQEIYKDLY
The test is described as follows: Agonist activity at human PPARgamma expressed in CHO cells co-transfected with pGL3-PPRE3-TK-luc assessed as transactivation after 24 hrs by firefly luciferase reporter gene assay. Type of test: functional, cell-based.

Test [4] has as its system HepG2. The experiment in a line: Upregulation of PPARgamma in human HepG2 cells by real-time PCR method. It is filed as functional, cell-based. Background: In qPCR the cycle at which signal appears reflects the starting amount.
Test [5] has as its system HepG2. The test is described as follows: Upregulation of PPARgamma in human HepG2 cells t 0.5 to 12.5 uM by real-time PCR method relative to control. It is filed as functional.
Test [6] addresses T4, Peroxisome proliferator-activated receptor gamma (Homo sapiens) (UniProt P37231).
T4 sequence (whole entry): T3 sequence (P37231 whole entry)
The test is described as follows: Agonist activity at PPARgamma in human HepG2 cells assessed as up-regulation of SCD-1 at 0.5 to 12.5 uM by real-time PCR method. It is filed as functional, cell-based.

For `CCC/C=C\C#C/C=C/C(=O)CCCCCCCC(=O)O`, the outcome in test [1], in test [2] and in test [6] was inactive. Also, the EC50 in test [3] turned out to be 1880 nM. The Activity result in the test with HepG2 [4] was “Dose-dependent effect”. Moreover, the “fold change (FC)” value with HepG2 [5] came out at 2.43.

In the case of `CCC/C=C\C#C/C=C/C(O)CCCCCCCC(=O)O` (centres undefined), the outcome in test [1] and in test [2] was inactive. In test [3], the EC50 is over 68400 nM.
